This note sets out measurements from patent US20240199546A1, “INHIBITORS OF SOLUTE CARRIER FAMILY 6A MEMBER 19 (SLC6A19) AND METHODS OF USE THEREOF” (Maze Therapeutics, Inc., priority 2022, published 2024).

Assay [1] addresses T1, human SLC6A19 and TMEM27 (Homo sapiens, UniProt Q695T7).
T1 construct: expressed in transfected cells
T1 sequence (Q695T7 1-634): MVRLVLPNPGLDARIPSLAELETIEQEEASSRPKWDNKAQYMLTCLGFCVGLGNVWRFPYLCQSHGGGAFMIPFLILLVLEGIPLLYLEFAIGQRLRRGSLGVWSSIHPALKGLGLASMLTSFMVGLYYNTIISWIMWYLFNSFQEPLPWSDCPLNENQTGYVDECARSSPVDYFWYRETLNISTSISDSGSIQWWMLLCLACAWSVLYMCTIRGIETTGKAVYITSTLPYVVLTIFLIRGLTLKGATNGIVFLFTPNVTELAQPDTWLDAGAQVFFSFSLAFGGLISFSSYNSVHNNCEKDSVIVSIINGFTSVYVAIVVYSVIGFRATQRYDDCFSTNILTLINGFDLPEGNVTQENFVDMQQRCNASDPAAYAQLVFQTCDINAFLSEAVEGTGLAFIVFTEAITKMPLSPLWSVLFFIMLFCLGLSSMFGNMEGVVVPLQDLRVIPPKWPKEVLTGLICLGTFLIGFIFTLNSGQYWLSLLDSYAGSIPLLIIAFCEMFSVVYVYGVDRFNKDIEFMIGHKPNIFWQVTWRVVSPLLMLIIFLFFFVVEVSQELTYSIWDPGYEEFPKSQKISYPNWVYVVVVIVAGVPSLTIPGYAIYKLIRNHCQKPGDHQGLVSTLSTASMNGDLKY
T1 sequence (Q9HBJ8 15-222 partner): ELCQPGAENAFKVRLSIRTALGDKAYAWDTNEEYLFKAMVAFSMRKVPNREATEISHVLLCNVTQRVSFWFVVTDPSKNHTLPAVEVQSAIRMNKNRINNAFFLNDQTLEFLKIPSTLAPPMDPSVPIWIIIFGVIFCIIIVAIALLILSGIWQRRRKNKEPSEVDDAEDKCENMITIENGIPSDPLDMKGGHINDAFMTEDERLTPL
Briefly: 13C6,15N-isoleucine uptake in CHO cells with doxycycline-inducible expression of human SLC6A19 and TMEM27, RapidFire mass spectrometry (Example B-2). The following applies: read-out: SLC6A19_RapidFire Uptake Assay IC50. Format: cell-based. The gist of the method:
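Read-out is RapidFire mass-spec peak area of 13C6,15N-isoleucine taken up over 20 min at 37 °C, after 20 min compound pre-exposure in pH 7.2 HEPES-buffered saline. Cells: doxycycline-induced CHO co-expressing human SLC6A19 and TMEM27; compounds as duplicate 10-point 2-fold dilutions, positive control setting 0% activity.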

For assay [2], the target named is T1, human SLC6A19 and TMEM27. The experiment in a line: Radiolabelled (3H) leucine uptake in CHO cells with doxycycline-inducible expression of human SLC6A19 and TMEM27 (Example B-1). As to conditions: CHO cells with doxycycline-inducible expression of human SLC6A19 and TMEM27, read-out: SLC6A19_Radioligand Uptake Assay IC50. The format is cell-based. Summed up: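 CHO cells were induced with doxycycline for 18 h at 37 °C, washed in HBSS, then exposed to compounds for 1 h: 8-point, 3-fold dilutions in duplicate, 0.5% DMSO final. Uptake measured by scintillation counting after 2 h shaking. Activity normalized with positive control as 0% and DMSO as 100%.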

`CC1(C(=O)NCc2cc3cc(C4CC4)c(OCc4ccon4)cc3[nH]2)CC1` [Compound 342, N-((5-cyclopropyl-6-(isoxazol-3-ylmethoxy)-1H-indol-2-yl)methyl)-1-methylcyclopropane-1-carboxamide]: the IC50 (as a rule, the concentration that gives 50% inhibition) at human SLC6A19 and TMEM27 [1] came to 215 nM; at human SLC6A19 and TMEM27 [2], 258 nM.
The like results for `Cc1cc2cc(CNC(=O)C3(C)CC3)[nH]c2cc1OCc1cscn1` [Compound 11, 1-methyl-N-((5-methyl-6-(thiazol-4-ylmethoxy)-1H-indol-2-yl)methyl)cyclopropane-1-carboxamide] were, in that order, 76 nM and 118 nM.
For `CC1(C(=O)NCc2cc3cc(CC(F)(F)F)c(OCc4cscn4)cc3[nH]2)CC1` [Compound 648, 1-methyl-N-((6-(thiazol-4-ylmethoxy)-5-(2,2,2-trifluoroethyl)-1H-indol-2-yl)methyl)cyclopropane-1-carboxamide], the IC50 stood at 344 nM on human SLC6A19 and TMEM27 [1]; 785 nM at human SLC6A19 and TMEM27 [2].
Consider `CC1(C(=O)NCc2cc3cc(F)c(OCc4ccon4)cc3[nH]2)CC1` [Compound 6, N-((5-fluoro-6-(isoxazol-3-ylmethoxy)-1H-indol-2-yl)methyl)-1-methylcyclopropane-1-carboxamide], for which the IC50 on human SLC6A19 and TMEM27 [1] was 148 nM; at human SLC6A19 and TMEM27 [2] it was 175 nM.
The like results for `Cc1cc(COc2cc3[nH]c(CNC(=O)C(C)C)cc3cc2Cl)no1` [Compound 130, N-((5-chloro-6-((5-methylisoxazol-3-yl)methoxy)-1H-indol-2-yl)methyl)isobutyramide] were, in that order, 65 nM and 85 nM.
The like results for `CC1(C(=O)NCc2cc3cc(C(F)(F)F)c(OCc4cscn4)cc3[nH]2)CC1` [Compound 60, 1-methyl-N-((6-(thiazol-4-ylmethoxy)-5-(trifluoromethyl)-1H-indol-2-yl)methyl)cyclopropane-1-carboxamide] were, in that order, 71 nM and 254 nM.
The like results for `CC(=O)NCc1cc2cc(Cl)c(OCc3cc(C)no3)cc2[nH]1` [Compound 218, N-((5-chloro-6-((3-methylisoxazol-5-yl)methoxy)-1H-indol-2-yl)methyl)acetamide] were, in that order, 27.5 nM and 69.4 nM.
As for `O=C(NCc1cc2cc(F)c(OCc3ccno3)cc2[nH]1)N1CCC1` [Compound 401, N-((5-fluoro-6-(isoxazol-5-ylmethoxy)-1H-indol-2-yl)methyl)azetidine-1-carboxamide], the IC50 at human SLC6A19 and TMEM27 [1] was determined as 534 nM; at human SLC6A19 and TMEM27 [2] it was 342 nM.
The like results for `CC1(C(=O)NCc2cc3cc(Cl)c(OCc4ccon4)cc3[nH]2)CCC1` [Compound 504, N-((5-chloro-6-(isoxazol-3-ylmethoxy)-1H-indol-2-yl)methyl)-1-methylcyclobutane-1-carboxamide] were, in that order, 406 nM and 391 nM.
The like results for `Cn1ncc(COc2cc3[nH]c(CNC(=O)C4(C)CC4)cc3cc2Cl)n1` [Compound 172, N-((5-chloro-6-((2-methyl-2H-1,2,3-triazol-4-yl)methoxy)-1H-indol-2-yl)methyl)-1-methylcyclopropane-1-carboxamide] were, in that order, 41 nM and 157 nM.
Consider `Cn1ncc(COc2cc3[nH]c(CNC(=O)N4CCCC4)cc3cc2F)n1` [Compound 410, N-((5-fluoro-6-((2-methyl-2H-1,2,3-triazol-4-yl)methoxy)-1H-indol-2-yl)methyl)pyrrolidine-1-carboxamide], for which the IC50 at human SLC6A19 and TMEM27 [1] is 578 nM; on human SLC6A19 and TMEM27 [2], 386 nM.
The like results for `O=C(NCc1cc2cc(Cl)c(NCc3cscn3)cc2[nH]1)N1CCC1` [Compound 472, N-((5-chloro-6-((thiazol-4-ylmethyl)amino)-1H-indol-2-yl)methyl)azetidine-1-carboxamide] were, in that order, 397 nM and 304 nM.
As for `Cc1cc2cc(CNC(=O)N3CCC3)[nH]c2cc1OCc1ccon1` [Compound 532, N-((6-(isoxazol-3-ylmethoxy)-5-methyl-1H-indol-2-yl)methyl)azetidine-1-carboxamide], the IC50 on human SLC6A19 and TMEM27 [1] came to 632 nM; at human SLC6A19 and TMEM27 [2], 509 nM.
The like results for `O=C(NCc1cc2cc(F)c(NCc3ccon3)cc2[nH]1)N1CCC1` [Compound 470, N-((5-fluoro-6-((isoxazol-3-ylmethyl)amino)-1H-indol-2-yl)methyl)azetidine-1-carboxamide] were, in that order, 1820 nM and 1310 nM.
`CC(=O)NCc1cc2cc(F)c(NCc3ccon3)cc2[nH]1` [Compound 228, N-((5-fluoro-6-((isoxazol-3-ylmethyl)amino)-1H-indol-2-yl)methyl)acetamide]: the IC50 on human SLC6A19 and TMEM27 [1] turned out to be 11200 nM; on human SLC6A19 and TMEM27 [2], 3170 nM.
Consider `CC1(C(=O)NCc2cc3cc(Cl)c(OCc4ccc5ccoc5c4)cc3[nH]2)CC1` [Compound 461, N-((6-(benzofuran-6-ylmethoxy)-5-chloro-1H-indol-2-yl)methyl)-1-methylcyclopropane-1-carboxamide], for which the IC50 at human SLC6A19 and TMEM27 [1] worked out at 989 nM; at human SLC6A19 and TMEM27 [2], 2700 nM.
In the case of `CN(C(=O)NCc1cc2cc(Cl)c(OCc3ccon3)cc2[nH]1)C1CC1` [Compound 379, 3-((5-chloro-6-(isoxazol-3-ylmethoxy)-1H-indol-2-yl)methyl)-1-cyclopropyl-1-methylurea], the IC50 worked out at 240 nM at human SLC6A19 and TMEM27 [1]; 382 nM at human SLC6A19 and TMEM27 [2].
Regarding `CC1CCN(C(=O)NCc2cc3ccc(OCc4ccon4)cc3[nH]2)C1` (stereo not drawn) [Compound 121, N-((6-(isoxazol-3-ylmethoxy)-1H-indol-2-yl)methyl)-3-methylpyrrolidine-1-carboxamide], the IC50 was found to be 590 nM on human SLC6A19 and TMEM27 [1]; 282 nM on human SLC6A19 and TMEM27 [2].
The like results for `CC1CCCN1C(=O)NCc1cc2cc(F)c(OCc3ccon3)cc2[nH]1` (stereo not drawn) [Compound 90, N-((5-fluoro-6-(isoxazol-3-ylmethoxy)-1H-indol-2-yl)methyl)-2-methylpyrrolidine-1-carboxamide] were, in that order, 1200 nM and 870 nM.
With `Cc1nc(COc2cc3[nH]c(CNC(=O)N4CCCC4)cc3cc2Cl)co1` [Compound 411, N-((5-chloro-6-((2-methyloxazol-4-yl)methoxy)-1H-indol-2-yl)methyl)pyrrolidine-1-carboxamide], the IC50 on human SLC6A19 and TMEM27 [1] amounted to 217 nM; on human SLC6A19 and TMEM27 [2], 313 nM.
The like results for `CC1(C(=O)NCc2cc3ccc(NCc4ccon4)cc3[nH]2)CC1` [Compound 152, N-((6-((isoxazol-3-ylmethyl)amino)-1H-indol-2-yl)methyl)-1-methylcyclopropane-1-carboxamide] were, in that order, 2060 nM and 531 nM.
Take `CC(C)C(=O)NCc1cc2cc(Cl)c(OCc3cocn3)cc2[nH]1` [Compound 500, N-((5-chloro-6-(oxazol-4-ylmethoxy)-1H-indol-2-yl)methyl)isobutyramide]: the IC50 on human SLC6A19 and TMEM27 [1] amounted to 257 nM; at human SLC6A19 and TMEM27 [2] it was 195 nM.
The like results for `CC1(C(=O)NCc2cc3ccc(OCc4c[nH]nn4)cc3[nH]2)CC1` [Compound 194, N-((6-((1H-1,2,3-triazol-4-yl)methoxy)-1H-indol-2-yl)methyl)-1-methylcyclopropane-1-carboxamide] were, in that order, 4940 nM and 6780 nM.
The like results for `O=C(NCc1cc2cc(Cl)c(OCc3cscn3)cc2[nH]1)C1(F)CC1` [Compound 231, N-((5-chloro-6-(thiazol-4-ylmethoxy)-1H-indol-2-yl)methyl)-1-fluorocyclopropane-1-carboxamide] were, in that order, 49.3 nM and 139 nM.
Consider `CCC(=O)NCc1cc2cc(Cl)c(OCc3cc(C)on3)cc2[nH]1` [Compound 128, N-((5-chloro-6-((5-methylisoxazol-3-yl)methoxy)-1H-indol-2-yl)methyl)propionamide], for which the IC50 at human SLC6A19 and TMEM27 [1] was 32 nM; at human SLC6A19 and TMEM27 [2], 70 nM.
Regarding `CC(=O)NCc1cc2cc(F)c(OCc3cnn(C)n3)cc2[nH]1` [Compound 222, N-((5-fluoro-6-((2-methyl-2H-1,2,3-triazol-4-yl)methoxy)-1H-indol-2-yl)methyl)acetamide], the IC50 came to 6610 nM on human SLC6A19 and TMEM27 [1]; 3170 nM at human SLC6A19 and TMEM27 [2].
The like results for `CCC(=O)NCc1cc2cc(F)c(OCc3cscn3)cc2[nH]1` [Compound 126, N-((5-fluoro-6-(thiazol-4-ylmethoxy)-1H-indol-2-yl)methyl)propionamide] were, in that order, 171 nM and 97 nM.
